Assay results from patent publication US12084411B2, “Hinokitiol analogues, methods of preparing and pharmaceutical compositions thereof” (The Board of Trustees of the University of Illinois, priority 2018, dated 2024).
Counter-ions that a name gives are not always drawn. Marks after values point to notes of the source that are not given here. Values belong to the compound of their own block, whether it stands above or below them.

Assays:
[1] = system: wild-type yeast (WT); assay: Toxicity to wild type yeast (structure-activity study, FIG. 25)
Description: (§1) Growth rescue in yeast was performed similar to previously reported (20) using 10 μM hinokitiol in low iron SD liquid media containing 10 μM FeCl3 in a 96-well plate unless otherwise noted. Wild type and fet3Δftr1Δ controls treated with vehicle (DMSO) were performed under identical conditions using the same low iron SD media containing 10 μM FeCl3 in the absence of hinokitiol. Yeast were grown overnight in YPD media and diluted at an OD600 of 0.1 in SD media, diluted 10-fold, and incubated at 30° C. with continuous shaking (200 rpm). The OD600 was obtained 24-48 hours after inoculation unless otherwise noted.
(§2) Small molecule dose-response (FIG. 1F) with hinokitiol and C2-deoxy hinokitiol (C2deOHino, see synthesis below) was determined by addition of the small molecule (40X stock solution in DMSO) to give the indicated final concentrations.

[2] = system: fet3Δftr1Δ yeast; assay: Growth rescue of fet3Δftr1Δ yeast with small molecules in liquid media; format: cell-based, Saccharomyces cerevisiae; settings: liquid low iron SD media, 10 μM FeCl3
Description: as §1, §2

[3] = not run under identical conditions, cited from earlier work; for E^0 Aqueous, literature value: Table 2, in parenthesis; for E^0 literature: Table 6
[4] = system: fet3Δftr1Δ yeast; assay: Growth rescue of iron-deficient yeast with small molecules on agar plates; format: cell-based, Saccharomyces cerevisiae; settings: low iron SD-agar plates, 10 μM FeCl3
[5] = system: DMT1-deficient Caco-2 monolayers; assay: 55Fe uptake and transport in DMT1-deficient Caco-2 monolayers; settings: apical addition (hinokitiol 500 nM); pH 5.5 apical, pH 7.4 basolateral; four hours
Description: Media from differentiated Caco-2 monolayers (P25-50, 21-28 days post seeding) grown on PET inserts in 6-well plates was aspirated, and monolayers were rinsed with PBS. 2 mL of basolateral fluid (serum-free DMEM at pH=7.4 in 10 mM HEPES buffer) was added to the basolateralside, and 1 mL of apical fluid (serum-free DMEM at pH=5.5 in 10 mM MES buffer) containing 200 nM ^55FeCl3 or the indicated concentration of FeCl3 and either DMSO vehicle, hinokitiol, C2deOHino, deferiprone, PIH, SIH, or deferoxamine mesylate (Sigma D9533) (500 nM Hino/C2deOHino for DMT1-deficiency, 1 μM Hino/C2deOHino for FPN1-deficiency, or indicated concentration of small molecule from a 1000X stock in DMSO) was added to the apical side via addition on the wall of the membrane insert without disrupting the cell monolayer. The monolayers were then incubated for four hours at 37° C. unless otherwise noted. A 100 μL aliquot of the basolateral fluid was removed, diluted in scintillation cocktail, and radioactivity was determined on a liquid scintillation counter to quantify relative amounts of ^55Fe transport. To determine intracellular ^55Fe, the basolateral and apical media was removed, and the monolayer was rinsed with PBS (×2). The cells were then lysed with 500 μL of 200 mM NaOH with nutator mixing overnight, and radioactivity was determined on a liquid scintillation counter after diluting the cell lysate in scintillation cocktail. All values were normalized to shControl monolayers unless otherwise noted. Absolute iron levels were determined through calibration of ^55Fe radioactivity levels with known standards and average mg of protein per membrane was determined by protein lysis with RIPA buffer containing protease inhibitors and quantified through a BCA kit according to manufacturer instructions.
TEER determination in Caco-2 monolayers (FIG. 12D and FIG. 14L) To determine Caco-2 membrane integrity, transport studies were performed as described above, except for the use of non-radioactive iron instead of ^55FeCl3. At the indicated time points, the transepithelial electrical resistance (TEER) was determined with an epithelial voltohmmeter and compared to the TEER of the membrane at the beginning of the experiment.

[6] = Iron (II) binding affinity, ferrozine competition assay; settings: pH 7.0
Description: (§3) Specifically, the association constant for iron (II) was determined by a ferrozine competition assay (KA of ferrozine=3.65×10^15) (60). FeCl2 (25 μM) was pre-mixed with ferrozine (75 μM) in a 25 mM MES/Tris buffer at pH=7.0 containing 62.5 mM sodium ascorbate. Then increasing concentrations of small molecule (from 40X stocks in DMSO) were added to the indicated final concentrations. The solutions were allowed to equilibrate for 24 hours before reading of the absorbance at 562 nm. […] The system was allowed to equilibrate overnight, and the absorbance corresponding to the Fe(chelator)3 complex was determined. The EC50 values for each chelator were calculated by a nonlinear curve fit (Hill1) on OriginPro by plotting the absorbance vs. concentration of titrant, and the KA for each complex was determined from the equation: KA, ligand=(KA, competitor*[EC50])/[ligand] where the ligand is the molecule originally bound to iron, and the competitor is the competing chelator.

[7] = Electrochemical studies (cyclic voltammetry) of iron:chelator complexes; format: physicochemical
Description: Potentiostatic electrochemical methods were performed on a CH Instruments electrochemical workstation (model 760 C, Austin, TX) on a three-electrode cell. Hg working electrodes were fabricated by the electrodeposition of Hg on a Pt wire utilizing the procedure previously described by Barton et al. (70). All experiments were reported versus a Ag/AgCl reference electrode and utilized a graphite auxiliary electrode. The electrolyte was sparged with UHP argon before measurements. A positive pressure of argon was maintained throughout the experiments.
Unless otherwise indicated, experiments used a 0.1 M Tris buffer in H2O or 1:1 MeOH:H2O at pH=7.2 using HNO3 and KOH as titrant. Unless otherwise indicated, experiments used a 100 mV/s scan rate, 100 μM Fe(NO3)3, and 500 μM small molecule. All redox potentials are recorded versus a normal hydrogen electrode (NHE).
The estimated redox potential of Fe(Hino)n was determined through extrapolation of the best-fit line of the determined redox potentials of Fe(Hino)n as a function of the concentration of MeOH in the 0.1 M Tris buffer at pH=7.2.

[8] = Iron efflux from liposomes using ferrozine; format: biochemical; settings: 5 μM small molecule
Description: Iron (III) efflux from POPC liposomes was determined similar to previously reported (64). POPC liposomes were prepared as similarly reported (65) using 30 mM FeCl3, 62.5 mM citrate at pH=7.0 in 25 mM Mes/Tris buffer. External iron was removed by size exclusion chromatography using Sephadex G-50 and eluting with external buffer. External buffer consisted of 62.5 mM ascorbate at pH=7.0 in 25 mM Mes/Tris buffer. The liposomes were diluted to 1 mM phosphorus in this buffer. Ferrozine (Sigma 160601) was added (100X stock in external buffer) to a final concentration of 500 μM. Liposomal suspension was then transferred to a 96-well plate, and either DMSO or 5 μM hinokitiol, C2deOHino, deferiprone, or PIH (40X stock solution in DMSO) were added to initiate the experiment. The OD562 was determined every minute over the course of 2 hours using a plate-reader with continuous shaking at 30° C. to detect the relative amounts of external ferrozine-iron chelate at the indicated times. After 2 hours, liposomes were lysed with Triton-X to give 100% iron efflux.
Iron (II) efflux was performed as described above, however, the internal buffer alternatively consisted of 30 mM FeSO4, 62.5 mM ascorbate at pH=7.0 in 25 mM Mes/Tris buffer and Triton-X lysis was performed after 1 hour.
The rates of iron efflux with increasing concentrations of intraliposomal iron and/or hinokitiol were determined as described above using the indicated concentration of iron and hinokitiol. For the varying concentrations of iron, hinokitiol (10 μM) was added to the POPC liposomes, and the change in absorbance at 562 nm was determined over 2 hours. For the varying concentrations of hinokitiol, 30 mM intraliposomal iron was used as described above. The concentration of iron outside of liposomes was determined using the extinction coefficient for ferrozine-iron (27,900 M^−1 cm^−1) (66). This was used to determine the amount of iron released from liposomes at the indicated times using the total volume for each experiment. Rates of iron efflux were determined after one hour of hinokitiol treatment.

[9] = in parenthesis, cited from earlier work; for pFe^III, literature value: References 104, 106
[10] = WST-8 toxicity in Caco-2 cells; settings: human, wild type Caco-2 cells
Description: Determination of small molecule-mediated toxicity in Caco-2, MEL, and/or J774 cells was performed according to manufacturer instructions using a WST-8 kit (Cayman Chemical 10010199) similar to previously reported (76) using a 1000× stock of the indicated small molecule in DMSO to give the indicated final concentration.

[11] = Iron (III) binding affinity, EDTA or citrate competition assay; settings: for KA for iron (III): EDTA competition (citrate for maltol), pH 7.0; for pFe^III: estimated from known pFe of EDTA (citrate for maltol)
Description: as §3

[12] = Lipophilicity determination for small molecule iron chelates (octanol-water partition); format: physicochemical; settings: octanol-water partition coefficient
Description: Concentrations of small molecule in water were determined via UV-Vis spectroscopy compared to known initial standards.

[13] = system: hinokitiol-rescued fet3Δftr1Δ yeast; assay: Chemical inhibition of yeast cell growth with inhibitors of Pma1, V-ATPase; format: cell-based, Saccharomyces cerevisiae; settings: 10 μM hinokitiol, 10 μM FeCl3
Description: Increasing dosages of caspofungin (Sigma SML0425), ebselen (Sigma 70530), or bafilomycin B1 (Santa Cruz sc-202072) (40X stocks in DMSO) were added to a yeast suspension (10-fold dilution from OD600=0.1) to give the indicated final dose. EC50 values were calculated from fitting of yeast growth curves using GraphPad PRISM.

SMILES: CC(C)CCc1cccc(O)c(=O)c1 [4-isopentyl tropolone]
- toxicity to wild type yeast [1]: most toxic
- restoration of fet3Δftr1Δ yeast growth, small molecule dose-response [2]: no rescue

SMILES: Cc1c(O)c(=O)ccn1C [Deferiprone, deferiprone]
- E^0 Aqueous, literature value [3]: (−423)^# mV vs. N.H.E.
- growth rescue of fet3Δftr1Δ yeast [4]: no growth rescue
- iron uptake and transepithelial transport [5]: did not promote both uptake and transport
- KA for iron (II) [6]: 2.1 × 10^15
- E^0 Aqueous ([7]; Table 2): −420 mV vs. N.H.E.
- E^0 1:1 MeOH:H2O ([7]; Table 2, 0.1 M Tris, pH 7.2): −410 mV vs. N.H.E.
- transport of ferrous and ferric iron across model liposomal membranes [8]: minimal transport
- pFe^III, literature value [9]: (21)^§
- EC90 [10]: > 100 µM
- KA for iron (III) [11]: 1.2 × 10^24
- pFe^III [11]: 22^+

- KA for iron (II) [6]: 1.2 × 10^15
- E^0 Aqueous ([7]; Table 2): 131 mV vs. N.H.E.
- E^0 1:1 MeOH:H2O ([7]; Table 2, 0.1 M Tris, pH 7.2): 139 mV vs. N.H.E.
SMILES: O=C(O)CN(CCN(CC(=O)O)CC(=O)O)CC(=O)O [EDTA]
- E^0 Aqueous, literature value [3]: (137)**** mV vs. N.H.E.
- KA for iron (III), literature value ([9]; Reference 60): (1.7 × 10^24)*
- pFe^III, literature value [9]: (22)^∥

- E^0 Aqueous ([7]; Table 6): 181 mV vs. N.H.E.
- E^0 1:1 MeOH:H2O ([7]; Table 6, pH 7.2, 500 μM small molecule, 100 μM Fe(NO3)3): 139 mV vs. N.H.E.
SMILES: O=C([O-])CN(CCN(CC(=O)[O-])CC(=O)[O-])CC(=O)[O-].[Fe+3] [Fe^III(EDTA)]
- E^0 literature [3]: 137^§ mV vs. N.H.E.

- KA for iron (II) [6]: 7.8 × 10^13
- E^0 Aqueous ([7]; Table 2): 41 mV vs. N.H.E.
- E^0 1:1 MeOH:H2O ([7]; Table 2, 0.1 M Tris, pH 7.2): 8 mV vs. N.H.E.
- KA for iron (III) [11]: 3.9 × 10^17
- pFe^III [11]: 15.4^±
SMILES: Cc1occc(=O)c1O [Maltol, maltol]
- E^0 Aqueous, literature value [3]: (40)*** mV vs. N.H.E.
- pFe^III, literature value [9]: (15)^§

SMILES: NC(=O)c1ccc[n+]([C@@H]2O[C@H](COP(=O)([O-])OP(=O)(O)OC[C@H]3O[C@@H](n4cnc5c(N)ncnc54)[C@H](OP(=O)(O)O)[C@@H]3O)[C@@H](O)[C@H]2O)c1 [NADP^+]
- E^0 literature [3]: 108 mV vs. N.H.E.

SMILES: Cc1ncc(CO)c(C=NNC(=O)c2ccncc2)c1O [PIH, pyridoxal isonicotinoyl hydrazone]
- growth rescue of fet3Δftr1Δ yeast [4]: no growth rescue
- iron uptake and transepithelial transport [5]: did not promote both uptake and transport
- transport of ferrous and ferric iron across model liposomal membranes [8]: minimal transport
- EC90 [10]: 31 µM

SMILES: O=C(NN=Cc1ccccc1O)c1ccncc1 [SIH, salicylaldehyde isonicotinoyl hydrazone]
- growth rescue of fet3Δftr1Δ yeast [4]: no growth rescue
- iron uptake and transepithelial transport [5]: did not promote both uptake and transport

SMILES: O=c1cccccc1O [Tropolene]
- E^0 Aqueous, literature value [3]: (0)** mV vs. N.H.E.
- logP Fe^III Complex [12]: −0.03
- KA for iron (II) [6]: 2.3 × 10^15
- E^0 Aqueous ([7]; Table 2): 39 mV vs. N.H.E.
- E^0 1:1 MeOH:H2O ([7]; Table 2, 0.1 M Tris, pH 7.2): 38 mV vs. N.H.E.
- KA for iron (III) [11]: 1.1 × 10^24
- pFe^III [11]: 22^+

SMILES: O=c1cccccc1O [Tropolone, tropolone]
- toxicity to wild type yeast [1]: does not show toxicity
- restoration of fet3Δftr1Δ yeast growth, small molecule dose-response [2]: shows rescue of Fet3Ftr1 yeast, but only at higher concentrations

SMILES: CO/C1=C\C(C)=C\[C@@H](C)[C@@H](O)[C@@H](C)C/C(C)=C/C=C/[C@H](OC)[C@@H]([C@@H](C)[C@@H](O)[C@H](C)[C@@]2(O)C[C@@H](OC(=O)/C=C/C(=O)NC3=C(O)CCC3=O)[C@H](C)[C@@H](C(C)C)O2)OC1=O [bafilomycin, bafilomycin B1]
- sensitivity of hinokitiol-rescued fet3Δftr1Δ yeast relative to hinokitiol-treated wild type yeast [13]: increased sensitivity

SMILES: CC[C@H](C)C[C@H](C)CCCCCCCCC(=O)N[C@H]1C[C@@H](O)[C@@H](NCCN)NC(=O)[C@@H]2[C@@H](O)CCN2C(=O)[C@H]([C@H](O)CCN)NC(=O)[C@H]([C@H](O)[C@@H](O)c2ccc(O)cc2)NC(=O)[C@@H]2C[C@@H](O)CN2C(=O)[C@H]([C@@H](C)O)NC1=O [caspofungin]
- sensitivity of hinokitiol-rescued fet3Δftr1Δ yeast relative to hinokitiol-treated wild type yeast [13]: equisensitive

SMILES: CC(=O)N(O)CCCCCNC(=O)CCC(=O)N(O)CCCCCNC(=O)CCC(=O)N(O)CCCCCN [deferoxamine, deferoxamine mesylate]
- iron uptake and transepithelial transport [5]: did not promote both uptake and transport
